{"source": "patent US6271234A", "about": "“1,4-disubstituted piperazines” (Recordati S.A., Chemical and Pharmaceutical Company, priority 1997, dated 2001)", "key": {"[1]": {"system": "rhythmic bladder voiding contractions", "assay": "Effects on volume-induced rhythmic bladder voiding contractions in anaesthetized rats", "assay_type": "in vivo, Female Sprague Dawley rats", "conditions": "for Bladder Quiescence (disappearance time of contractions): mean ± S.E.", "procedure": "The animals were housed with free access to food and water and were maintained on a forced 12 h alternating light-dark cycle at 22-24° C. for at least one week, except during the experiment. […] The catheter was tied in place with a ligature around the external urethral orifice and was connected with conventional pressure transducers (Statham P23 ID/P23 XL). […] The bladder was then filled via the recording catheter by incremental volumes of warm (37° C.) saline until reflex bladder voiding contractions occurred (usually 0.8-1.5 ml).\nAfter cessation of the effect of drug injection, the height of the peaks was compared with that previously recorded after the intravenous administration of vehicle alone."}, "[2]": {"target": "T1, human 5-HT1A -serotoninergic receptor (Homo sapiens, UniProt P08908)", "T1 construct": "expressed in transfected cells; host or cells: HeLa (human cell line), stably transfected; cell membranes", "T1 sequence (P08908 1-422)": "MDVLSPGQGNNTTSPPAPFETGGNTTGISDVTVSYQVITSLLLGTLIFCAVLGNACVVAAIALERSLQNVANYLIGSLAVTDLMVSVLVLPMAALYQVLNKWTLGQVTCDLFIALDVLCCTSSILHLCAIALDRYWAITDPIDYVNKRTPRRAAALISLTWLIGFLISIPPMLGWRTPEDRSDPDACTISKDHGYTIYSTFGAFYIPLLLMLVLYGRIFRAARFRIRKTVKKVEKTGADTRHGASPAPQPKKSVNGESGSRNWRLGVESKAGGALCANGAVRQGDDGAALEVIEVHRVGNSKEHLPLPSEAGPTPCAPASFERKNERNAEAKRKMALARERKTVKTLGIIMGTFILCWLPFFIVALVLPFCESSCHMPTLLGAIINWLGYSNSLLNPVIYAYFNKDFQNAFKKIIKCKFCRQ", "assay": "Radioreceptor binding to recombinant 5-HT1A receptors ([3H]8-OH-DPAT, HeLa cell membranes)", "conditions": "[3H]8-OH-DPAT 0.2-1 nM, 30 min at 30° C., read-out: Binding affinity for the 5-HT1A receptor, Ki", "procedure": "HeLa cells were grown as monolayers in Dulbecco's modified Eagle's medium (DMEM), supplemented with 10% fetal calf serum and gentamicin ([…]), 5% CO2 at 37° C. Cells were detached from the growth flash at 95% confluence by a cell scraper and were lysed in ice-cold 5 mM Tris and 5 mM EDTA buffer (pH 7.4). Homogenates were centrifuged at 40000×g×20 min and pellets were resuspended in a small volume of ice-cold 5 mM Tris 5 and 5 mM EDTA buffer (pH 7.4) and immediately frozen and stored at -70° C. until use. On the day of experiment, cell membranes were resuspended in binding buffer: 50 mM Tris HCl (pH 7.4), 2.5 mM MgCl2, […] (Fargin et al., Nature 335, 358-360, 1988). Membranes were incubated in a final volume of 1 ml for 30 min at 30° C. with 0.2-1 nM [^3 H]8-OH-DPAT, in absence or presence of competing drugs; non-specific binding was determined in the presence of […]. The incubation was stopped by addition of ice-cold Tris-HCl buffer and rapid filtration through 0.2% polyethyleneimine pretreated Whatman GF/B or Schleicher & Schuell GF52 filters."}, "[3]": {"system": "rhythmic bladder voiding contractions", "conditions": "urethane-anesthetized rats; background statement; cited from earlier work"}, "[4]": {"conditions": "i.v., urethane-anesthetized rats"}}}
{"smiles": "O=C(C1CCCCC1)N(CCN1CCN(Cc2cc(Cl)ccc2Cl)CC1)c1ccccn1", "note": "[Ex. 14, 1-[N-cyclohexylcarbonyl-N-(2-pyridyl)-2-aminoethyl]-4-(2,5-dichlorobenzyl)piperazine]", "values": [{"measurement": "Bladder Quiescence (disappearance time of contractions)", "setting": "[1]; 30 μg/kg i.v.", "value": "2.80 ± 1.31", "unit": "min"}, {"measurement": "Bladder Quiescence (disappearance time of contractions)", "setting": "[1]; 100 μg/kg i.v.", "value": "10.12 ± 1.98", "unit": "min"}, {"measurement": "Bladder Quiescence (disappearance time of contractions)", "setting": "[1]; 300 μg/kg i.v.", "value": "21.52 ± 4.66", "unit": "min"}, {"measurement": "Ki", "setting": "[2]", "value": 0.12, "unit": "nM"}]}
{"smiles": "COc1cc(N)ccc1N1CCN(CCN(C(=O)C2CCCCC2)c2ccccn2)CC1", "note": "[Ex. 6, 1-[N-cyclohexylcarbonyl-N-(2-pyridyl)-2-aminoethyl]-4-(4-amino-2-methoxyphenyl)piperazine]", "values": [{"measurement": "Bladder Quiescence (disappearance time of contractions)", "setting": "[1]; 10 μg/kg i.v.", "value": "6.75 ± 1.66", "unit": "min"}, {"measurement": "Bladder Quiescence (disappearance time of contractions)", "setting": "[1]; 100 μg/kg i.v.", "value": "9.82 ± 1.18", "unit": "min"}, {"measurement": "Bladder Quiescence (disappearance time of contractions)", "setting": "[1]; 1000 μg/kg i.v.", "value": "15.00 ± 3.11", "unit": "min"}, {"measurement": "Ki", "setting": "[2]", "value": 14.3, "unit": "nM"}]}
{"smiles": "CCN(CC)CC#CCOC(=O)C(O)(c1ccccc1)C1CCCCC1", "note": "(centres unmarked) [Oxybutynin, reference compound]", "values": [{"measurement": "Bladder Quiescence (disappearance time of contractions)", "setting": "[1]; 100 μg/kg i.v.", "value": "0.92 ± 0.15", "unit": "min"}, {"measurement": "Bladder Quiescence (disappearance time of contractions)", "setting": "[1]; 300 μg/kg i.v.", "value": "2.87 ± 1.12", "unit": "min"}, {"measurement": "Bladder Quiescence (disappearance time of contractions)", "setting": "[1]; 1000 μg/kg i.v.", "value": "2.80 ± 0.60", "unit": "min"}, {"measurement": "Bladder Quiescence (disappearance time of contractions)", "setting": "[1]; 3000 μg/kg i.v.", "value": "6.27 ± 2.90", "unit": "min"}, {"measurement": "ED50", "setting": "[1]; Rattus norvegicus, iv, read-out: ED50 value (extrapolated dose inducing a 30% reduction of amplitude of the contractions in 50% of treated rats)", "value": 240, "unit": "mg/kg"}, {"measurement": "Duration of bladder quiescence / cessation of bladder contractions (in words)", "setting": "[1]; [4]", "value": "does not cause cessation of bladder contractions"}, {"measurement": "Effect on amplitude of bladder contractions (in words)", "setting": "[1]; [4]", "value": "only decreased the amplitude of the contractions in a dose-related manner"}, {"measurement": "Effect on bladder voiding contractions in this model system (background, in words)", "setting": "[3]", "value": "lower the amplitude of the bladder contractions"}]}
{"smiles": "Cc1c(-c2ccccc2)oc2c(C(=O)OCCN3CCCCC3)cccc2c1=O", "note": "[Flavoxate, reference compound]", "values": [{"measurement": "Bladder Quiescence (disappearance time of contractions)", "setting": "[1]; 1000 μg/kg i.v.", "value": "3.04 ± 0.96", "unit": "min"}, {"measurement": "Bladder Quiescence (disappearance time of contractions)", "setting": "[1]; 3000 μg/kg i.v.", "value": "5.30 ± 1.00", "unit": "min"}, {"measurement": "Bladder Quiescence (disappearance time of contractions)", "setting": "[1]; 10000 μg/kg i.v.", "value": "8.25 ± 1.90", "unit": "min"}]}
{"smiles": "N#Cc1ccccc1N1CCN(CCN(C(=O)C2CCCCC2)c2ccccn2)CC1", "note": "[Ex. 4, 1-[N-cyclohexylcarbonyl-N-(2-pyridyl)-2-aminoethyl]-4-(2-cyanophenyl) piperazine]", "values": [{"measurement": "Ki", "setting": "[2]", "value": 0.31, "unit": "nM"}]}
{"smiles": "O=C(C1CCCCC1)N(CCN1CCN(c2ccccc2OC(F)(F)F)CC1)c1ccccn1", "note": "[Ex. 1, 1-[N-cyclohexylcarbonyl-N-(2-pyridyl)-2-aminoethyl]-4-(2-trifluoromethoxyphenyl)piperazine]", "values": [{"measurement": "Bladder Quiescence (disappearance time of contractions)", "setting": "[1]; 100 μg/kg i.v.", "value": "5.85 ± 1.87", "unit": "min"}, {"measurement": "Bladder Quiescence (disappearance time of contractions)", "setting": "[1]; 1000 μg/kg i.v.", "value": "16.25 ± 1.38", "unit": "min"}, {"measurement": "Bladder Quiescence (disappearance time of contractions)", "setting": "[1]; 3000 μg/kg i.v.", "value": "18.40 ± 4.12", "unit": "min"}, {"measurement": "Ki", "setting": "[2]", "value": 0.86, "unit": "nM"}]}
{"smiles": "COc1cc(NS(C)(=O)=O)ccc1N1CCN(CCN(C(=O)C2CCCCC2)c2ccccn2)CC1", "note": "[Ex. 8, 1-[N-cyclohexylcarbonyl-N-(2-pyridyl)-2-aminoethyl]-4-(4-methanesulfonylamino-2-methoxyphenyl)piperazine]", "values": [{"measurement": "Bladder Quiescence (disappearance time of contractions)", "setting": "[1]; 100 μg/kg i.v.", "value": "2.03 ± 0.44", "unit": "min"}, {"measurement": "Bladder Quiescence (disappearance time of contractions)", "setting": "[1]; 1000 μg/kg i.v.", "value": "7.20 ± 1.07", "unit": "min"}, {"measurement": "Bladder Quiescence (disappearance time of contractions)", "setting": "[1]; 3000 μg/kg i.v.", "value": "14.20 ± 2.57", "unit": "min"}]}
{"smiles": "O=C(C1CCCCC1)N(CCN1CCN(c2cc(Cl)ccc2OCC(F)(F)F)CC1)c1ccccn1", "note": "[Ex. 3, 1-[N-cyclohexylcarbonyl-N-(2-pyridyl)-2-aminoethyl]-4-[5-chloro-2-(2,2,2-trifluoroethoxy)phenyl]piperazine]", "values": [{"measurement": "Bladder Quiescence (disappearance time of contractions)", "setting": "[1]; 10 μg/kg i.v.", "value": "3.15 ± 1.74", "unit": "min"}, {"measurement": "Bladder Quiescence (disappearance time of contractions)", "setting": "[1]; 100 μg/kg i.v.", "value": "6.15 ± 1.19", "unit": "min"}, {"measurement": "Bladder Quiescence (disappearance time of contractions)", "setting": "[1]; 1000 μg/kg i.v.", "value": "10.13 ± 0.59", "unit": "min"}, {"measurement": "Bladder Quiescence (disappearance time of contractions)", "setting": "[1]; 3000 μg/kg i.v.", "value": "14.42 ± 2.36", "unit": "min"}, {"measurement": "Ki", "setting": "[2]", "value": 1.51, "unit": "nM"}]}
{"smiles": "O=C(C1CCCCC1)N(CCN1CCN(c2ccccc2OCC(F)(F)F)CC1)c1ccccn1", "note": "[Ex. 2, 1-[N-cyclohexylcarbonyl-N-(2-pyridyl)-2-aminoethyl]-4-[2-(2,2,2-trifluoroethoxy)phenyl]piperazine]", "values": [{"measurement": "Bladder Quiescence (disappearance time of contractions)", "setting": "[1]; 30 μg/kg i.v.", "value": "3.00 ± 0.91", "unit": "min"}, {"measurement": "Bladder Quiescence (disappearance time of contractions)", "setting": "[1]; 100 μg/kg i.v.", "value": "8.70 ± 2.88", "unit": "min"}, {"measurement": "Bladder Quiescence (disappearance time of contractions)", "setting": "[1]; 1000 μg/kg i.v.", "value": "27.28 ± 8.70", "unit": "min"}, {"measurement": "Ki", "setting": "[2]", "value": 0.89, "unit": "nM"}]}
{"smiles": "O=C(C1CCCCC1)N(CCN1CCN(c2cc(Cl)ccc2Cl)CC1)c1ccccn1", "note": "[Ex. 10, 1-[N-cyclohexylcarbonyl-N-(2-pyridyl)-2-aminoethyl]-4-(2,5-dichlorophenyl)piperazine]", "values": [{"measurement": "Ki", "setting": "[2]", "value": 0.45, "unit": "nM"}]}
{"smiles": "COc1cc(NC(C)=O)ccc1N1CCN(CCN(C(=O)C2CCCCC2)c2ccccn2)CC1", "note": "[Ex. 7, 1-[N-cyclohexylcarbonyl-N-(2-pyridyl)-2-aminoethyl]-4-(4-acetylamino-2-methoxyphenyl)piperazine]", "values": [{"measurement": "Bladder Quiescence (disappearance time of contractions)", "setting": "[1]; 100 μg/kg i.v.", "value": "7.97 ± 1.78", "unit": "min"}, {"measurement": "Bladder Quiescence (disappearance time of contractions)", "setting": "[1]; 300 μg/kg i.v.", "value": "8.65 ± 1.81", "unit": "min"}, {"measurement": "Bladder Quiescence (disappearance time of contractions)", "setting": "[1]; 1000 μg/kg i.v.", "value": "20.63 ± 3.31", "unit": "min"}, {"measurement": "Ki", "setting": "[2]", "value": 8.15, "unit": "nM"}]}
